Measured values as given in patent publication US11427544B2, “Histone deacetylase 6 inhibitors and use thereof” (TAIPEI MEDICAL UNIVERSITY, priority 2016, dated 2022).

How the values were obtained:
[1] = test system: Caspase-3, Caspase-8, and Caspase-9 cleavage in RPMI8226 and NCI-H929; test: Cleavage of Caspase-3, -8 and -9 in multiple myeloma cells, combined with bortezomib; format: cell-based, human
Procedure: A study was conducted to evaluate the effect of a compound of Formula (I) combined with bortezomib in increasing cleavage of Caspase-3, Caspase-8, and Caspase-9 in multiple myeloma cells.
Cells (1×10^6) were incubated for 10 minutes at 4° C. in a lysis buffer solution in a culture vessel, and then scraped off the culture vessel, incubated on ice for another 10 minutes, and centrifuged at 17,000×g for 30 minutes at 4° C. Protein samples ([…]) were electrophoresed on SDS gels and transferred onto a nitrocellulose membrane, which was blocked by incubation with 5% fat-free milk in phosphate-buffered saline (PBS) for 30 minutes at room temperature. Immunoblotting was performed by overnight incubation at 4° C. with primary antibodies in PBS, followed by incubation for 1 hour at room temperature with horseradish peroxidase (HRP)-conjugated secondary antibodies, then bound antibodies were measured using enhanced chemiluminescence (ECL) reagent (Advansta Corp., Menlo Park, Calif., USA) and exposure to photographic film.
The study was performed according to the protocol reported in Yang et al., Journal of Molecular Medicine, 2014, November; 92(11):1147-1158.

HCT116 Colorectal = test: Tumor growth inhibition, HCT116 xenograft; format: in vivo, athymic nude mice; settings: qd, intraperitoneal
Procedure: An in vivo study was conducted to evaluate the efficacy of compounds of Formula (I) in suppressing tumor growth in multiple human cancer types.
Eight-week-old athymic nude mice were group-housed under conditions of constant photoperiod (12 h light/12 h dark at 21-23° C. and 60-85% humidity) with ad libitum access to sterilized food and water. All animal experiments followed ethical standards, and protocols were reviewed and approved by the Animal Use and Management Committee of National Taiwan University. Each mouse was inoculated subcutaneously with 1×10^6˜1×10^7 human cancer cells in a total volume of 0.1 mL serum-free medium containing 50% Matrigel (BD Biosciences). As tumors became established (˜100 mm^3), mice were randomized to various groups to be treated with pre-determined materials (n=6-8/group): (i) control group: 0.5% DMSO/0.5% Cremophor/90% D5W and (ii) treatment groups: Compounds 12 and 28 at pre-determined doses daily. Mice received treatment by intraperitoneal injection for the duration of the study. Tumors were measured weekly using calipers. Tumor size, in mm^3, was calculated according to the formula: Tumor volume=(w^2×l)/2, where w and 1 respectively represent the width and length (both in mm) of the tumor.

[2] = test system: scopolamine-induced memory deficit; test: Elevated plus maze test, scopolamine-treated rats; format: in vivo; settings: gavage twice daily for seven days; scopolamine 1.5 mg/kg i.p.
Procedure: An in vivo study was conducted to evaluate the efficacy of compounds of Formula (I) in improving memory deficits associated with Alzheimer's disease. Compound 12, Compound 28, suberanilohydroxamic acid (50 mg/kg) or vehicle was given to rats by gavage twice daily for seven days prior to behavioral experiments. On the day conducting a behavior assessment, rats in all groups except the control group were administered scopolamine (1.5 mg/kg) by intraperitoneal injection for 30 minutes before the assessment, then a water maze test or an elevated plus maze test was performed. […] The significant reduction in transfer latency time indicated improvement in memory.

O=C(NO)c1ccc(CNc2cccc3cccnc23)cc1 [Compound 28, N-hydroxy-4-((quinolin-8-ylamino)methyl)benzamide]
cleavage of Caspase-3, Caspase-8, and Caspase-9 [1]: increased cleavage of Caspase-3, Caspase-8, and Caspase-9
% TGI (HCT116 Colorectal; 50 mg/kg): 9.1%
% TGI (HCT116 Colorectal; 100 mg/kg): 44.4%
transfer latency time (elevated plus maze) [2]: significantly rescued scopolamine-mediated increase of transfer latency time
